# Data from patent US3955959A, “Herbicide for use in transplanted rice” (priority 1974, dated 1976).
# Where “and” joins values, the source holds several entries; their conditions need not be identical. Equal entries are not always repeated.
# Columns and labels:
# [1] = tested on: weeds in ordinary transplanted rice; experiment: Example 4 field test, overall weed control; type: in vivo
# Description: (§1) Treatments were replicated four times.
# [2] = tested on: ordinary transplanted rice; experiment: Example 4 field test, crop injury; settings: obs. 36 DAT
# Description: (§2) In the tests described in the tables below, the herbicides were formulated and used in granular form in conventional manner. […] The commercial herbicide used was a granular product having 5% active ingredient.
# (§3) In the field tests of the herbicide of this invention with transplanted rice, the rice seedlings were grown in conventional manner, by seeding the rice in a typical seedbed of sandy loam to clay soil of the country wherein the test was conducted. For laboratory and greenhouse work the seedlings were obtained by seeding rice in a mixture of soil, e.g., Ray silt loam, and peat in wood flats. For purposes of testing the herbicides on younger rice seedlings (infant or Dapog) the rice was usually allowed to grow for 6-15 days before lifting for transplanting. Older (ordinary) rice plants were usually grown for a period of about 2-3 weeks, or as much as about 7 weeks before lifting. Since the period of growth is dependent upon climatic conditions, a better measure of when to transplant the rice seedling is the leaf stage of growth; for infant or Dapog rice the seedling is lifted at the 1.5-2 leaf stage of growth, and for ordinary seedlings at the 2.5-5 leaf stage. The seedlings were then transplanted to the test plots for evaluation of the herbicide for injury against weed species present with the transplanted rice. The herbicides were then applied to the growth medium of the weeds and transplant rice, either preemergent or postemergent with respect to the weeds and postemergent with respect to the transplanted rice. Application times are designated in the tables as "DAT", meaning "days after transplant". Application rates given in the tables refer to the amount of active ingredient used.
# (§4) In this example comparative field tests were conducted with Herbicides A and B on ordinary transplanted rice at Munoz, Philippines.
# (§5) Twenty-one (21) day-old ordinary wet bed seedlings of the Fortuna variety were transplanted to field plots and Herbicides A and B applied at 5 DAT and 14 DAT. The field plots were overseeded with barnyardgrass (E. crusgalli) at 2 kgs/ha. Treatments were replicated four times.
# [3] = tested on: ordinary transplanted rice; experiment: Example 4 field test, rice yield; type: in vivo, rice (Fortuna variety); settings: in vivo
# Description: as §2, §3, §4, §5
# [4] = tested on: Broadleaf: Mv, Sz (Monochoria vaginalis, Sphenoclea zeylanica); experiment: Example 3 field test on Dapog rice, weed control, Munoz, Philippines; type: in vivo, Monochoria vaginalis and Sphenoclea zeylanica; settings: obs. 42 DAT
# Description: as §1
# Ann. Cyp (Cyperus spp) = experiment: Example 5 field test, weed control, JAAPR, Japan
# Description: as §2, §3
# The rice seedlings were grown to the 1.7 leaf stage for infant seedlings and to the 5.5 leaf stage for ordinary seedlings. Two days after puddling the soil in which the seedlings were to be transplanted, both infant and ordinary seedlings were transplanted into plots 8.5 m^2.
# The weed symbol "Obw" represents "other broadleaf weeds" of unspecified identity. Results presented in Table 5 represent the average of 2 replications.
# Monochoria vaginalis = experiment: Example 2 field test, weed control, Chia Yi, Taiwan; type: in vivo; settings: obs. 63 DAT
# Description: In the field tests of the herbicide of this invention with transplanted rice, the rice seedlings were grown in conventional manner, by seeding the rice in a typical seedbed of sandy loam to clay soil of the country wherein the test was conducted. For laboratory and greenhouse work the seedlings were obtained by seeding rice in a mixture of soil, e.g., Ray silt loam, and peat in wood flats. For purposes of testing the herbicides on younger rice seedlings (infant or Dapog) the rice was usually allowed to grow for 6-15 days before lifting for transplanting. Older (ordinary) rice plants were usually grown for a period of about 2-3 weeks, or as much as about 7 weeks before lifting. Since the period of growth is dependent upon climatic conditions, a better measure of when to transplant the rice seedling is the leaf stage of growth; for infant or Dapog rice the seedling is lifted at the 1.5-2 leaf stage of growth, and for ordinary seedlings at the 2.5-5 leaf stage. The seedlings were then transplanted to the test plots for evaluation of the herbicide for injury against weed species present with the transplanted rice. The herbicides were then applied to the growth medium of the weeds and transplant rice, either preemergent or postemergent with respect to the weeds and postemergent with respect to the transplanted rice. […] Application rates given in the tables refer to the amount of active ingredient used.
# Rice seedlings (ordinary) of Tainan No. 5 variety (japonica) were transplanted at 19 days of growth. Granular formulations of Herbicides A and B were applied at the 1 leaf stage of grass weed (4 DAT) and 2.5 leaf stage of grass weed (10 DAT).
# [5] = tested on: Mv (Monochoria vaginalis); experiment: Example 5 field test, weed control, JAAPR, Japan; type: in vivo
# Ce (Cyperus esculentus) = experiment: Example 7 greenhouse preemergence activity; type: in vivo
# Description: In a further comparative study of the preemergence activity of Herbicides A and B, a variety of weeds and upland direct-seeded rice were tested under greenhouse conditions. The present invention is not concerned with the use of Herbicide A in direct-seeded rice. The primary purpose of the experimental work in this example is to compare relative herbicidal activity of Herbicides A and B against the weeds shown in Table 7; most of these weeds were not available for tests with transplanted rice. Although the relative selectivity of these herbicides in upland rice is also evident, that aspect of the tests is more or less incidental to the purpose of this example.
# In this example, rice seeds and seeds of the weeds shown in Table 7 were sown in Ray silt loam soil at a depth of 0.5 inch (1.27 cm) in containers for the soil in a greenhouse. Herbicides A and B were applied to the surface of the soil at a spray volume equivalent to 20 gals/acre (187.1 liters/hectare), followed by 0.5 in (1.27 cm) of overhead irrigation. Temperature and relative humidity in the greenhouse were on the order of 85°F (29°C) and 75%, respectively. Observations were made at 21-28 days after seeding.
# In Table 7 are shown the average rates of herbicide required to cause a growth reduction of 85% of the weeds ("GR85 "), and the average rate of herbicide required to cause a growth reduction of 15% ("GR15 ") of the rice plants (Oryza sativa, "Os", variety Bluebelle).
# [6] = tested on: Perennials Ek and Sa (Eleocharis kuroguwai, Sagittaria aginashi); experiment: Example 1 field test, perennial weed control, Iri, Korea; type: in vivo; settings: for % Weed Control (Perennials Ek and Sa): weed weight at 63 DAT
# Description: In the field test 48 day-old seedlings (Watanabe variety) were transplanted to plots 2.5 × 6 m. seeded with the weed seeds indicated in Table 1. At 5 and 10 DAT periods, the herbicides were applied to the plants (now at the 1.2 and 2.0 leaf stage, respectively, of grass weed) at the indicated rate in kilograms per hectare (kg/ha). The weed control and rice injury results for 3 replications are reported in percentages as of the indicated times of observation. The percentages given in the "Perennials" column are based on the weight of the weeds at 63 DAT, i.e., 42 gms/3.6 m^2 for the weedy check.
# [7] = tested on: Obw (other broadleaf weeds); experiment: Example 5 field test, weed control, JAAPR, Japan; type: in vivo
# [8] = 0.25 kg/ha both plots, 1.0 kg/ha ordinary
# [9] = 1.0 kg/ha, 15 DAT, infant seedlings
# [10] = 1.0 kg/ha, 15 DAT, ordinary seedlings
# [11] = .25 kg/ha, 2 DAT, infant seedlings
# [12] = .25 kg/ha, 2 DAT, ordinary seedlings
# [13] = .5 kg/ha, 7 DAT, infant seedlings
# [14] = .5 kg/ha, 7 DAT, ordinary seedlings
structure (smiles),measurement,setting,value
"CCCCOCN(C(=O)CCl)c1c(C)cccc1C(C)(C)C [Herbicide A, n-(butoxymethyl)-6'-tert-butyl-2-chloro-o-acetotoluidide]",control of all weeds,[1]; 5 DAT,complete control of all weeds
same,weed control in words,[1]; 14 DAT,dropped off
same,weed control vs Herbicide B,[1]; 14 DAT,more weed control
same,Crop Injury (%),"[2]; 5 DAT, 1.0 kg/ha",0%
same,Crop Injury (%),"[2]; 5 DAT, 2.0 kg/ha",60%
same,Crop Injury (%),"[2]; 5 DAT, .25 kg/ha",0%
same,Crop Injury (%),"[2]; 5 DAT, .5 kg/ha",0%
same,Crop Injury (%),"[2]; 14 DAT, 1.0 kg/ha",0%
same,Crop Injury (%),"[2]; 14 DAT, 2.0 kg/ha",30%
same,Crop Injury (%),"[2]; 14 DAT, .25 kg/ha",0%
same,Crop Injury (%),"[2]; 14 DAT, .5 kg/ha",0%
same,Yield (% of H.W. Check),[3],129% and 136% and 123% and 101% and 90% and 97% and 100%
same,rice yield vs hand weeded check,[3],only slightly lower than the hand weeded check
same,rice yield vs hand weeded control,[3],slightly more than the hand weeded control
same,"% Weed control, Broadleaf (Mv,Sz)","[4]; 5 DAT, 1.0 kg/ha",100%
same,"% Weed control, Broadleaf (Mv,Sz)","[4]; 5 DAT, 2.0 kg/ha",100%
same,"% Weed control, Broadleaf (Mv,Sz)","[4]; 5 DAT, .25 kg/ha",100%
same,"% Weed control, Broadleaf (Mv,Sz)","[4]; 5 DAT, .5 kg/ha",100%
same,"% Weed control, Broadleaf (Mv,Sz)","[4]; 14 DAT, 1.0 kg/ha",60%
same,"% Weed control, Broadleaf (Mv,Sz)","[4]; 14 DAT, 2.0 kg/ha",60%
same,"% Weed control, Broadleaf (Mv,Sz)","[4]; 14 DAT, .25 kg/ha",0%
same,"% Weed control, Broadleaf (Mv,Sz)","[4]; 14 DAT, .5 kg/ha",60%
same,control of Ann. Cyp in words,Ann. Cyp (Cyperus spp); [8],controlled completely
same,% Weed Control (Ann. Cyp),Ann. Cyp (Cyperus spp); [9],100%
same,% Weed Control (Ann. Cyp),Ann. Cyp (Cyperus spp); [10],100%
same,control of Ann. Cyp in words,"Ann. Cyp (Cyperus spp); 1.0 kg/ha, infant seedling plots",controlled
same,% Weed Control (Ann. Cyp),Ann. Cyp (Cyperus spp); [11],100%
same,% Weed Control (Ann. Cyp),Ann. Cyp (Cyperus spp); [12],100%
same,% Weed Control (Ann. Cyp),Ann. Cyp (Cyperus spp); [13],75%
same,% Weed Control (Ann. Cyp),Ann. Cyp (Cyperus spp); [14],80%
same,% Weed Control (Monochoria Vaginalis),"Monochoria vaginalis; 4 DAT, 1.0 kg/ha",100%
same,% Weed Control (Monochoria Vaginalis),"Monochoria vaginalis; 4 DAT, 2.0 kg/ha",100%
same,% Weed Control (Monochoria Vaginalis),"Monochoria vaginalis; 4 DAT, .25 kg/ha",80%
same,% Weed Control (Monochoria Vaginalis),"Monochoria vaginalis; 4 DAT, .5 kg/ha",99%
same,% Weed Control (Monochoria Vaginalis),"Monochoria vaginalis; 10 DAT, 1.0 kg/ha",99%
same,% Weed Control (Monochoria Vaginalis),"Monochoria vaginalis; 10 DAT, 2.0 kg/ha",99%
same,% Weed Control (Monochoria Vaginalis),"Monochoria vaginalis; 10 DAT, .25 kg/ha",35%
same,% Weed Control (Monochoria Vaginalis),"Monochoria vaginalis; 10 DAT, .5 kg/ha",87%
same,% Weed Control (Mv),[5]; [9],67%
same,% Weed Control (Mv),[5]; [10],62%
same,% Weed Control (Mv),[5]; [11],80%
same,% Weed Control (Mv),[5]; [12],80%
same,% Weed Control (Mv),[5]; [13],60%
same,% Weed Control (Mv),[5]; [14],62%
same,resistance of Ce,Ce (Cyperus esculentus),resistant
same,% Weed Control (Perennials Ek and Sa),"[6]; 5 DAT, 1.0 kg/ha",68%
same,% Weed Control (Perennials Ek and Sa),"[6]; 5 DAT, 2.0 kg/ha",100%
same,% Weed Control (Perennials Ek and Sa),"[6]; 5 DAT, .25 kg/ha",0%
same,% Weed Control (Perennials Ek and Sa),"[6]; 5 DAT, .5 kg/ha",55%
same,% Weed Control (Perennials Ek and Sa),"[6]; 10 DAT, 1.0 kg/ha",0%
same,% Weed Control (Perennials Ek and Sa),"[6]; 10 DAT, 2.0 kg/ha",0%
same,% Weed Control (Perennials Ek and Sa),"[6]; 10 DAT, .25 kg/ha",0%
same,% Weed Control (Perennials Ek and Sa),"[6]; 10 DAT, .5 kg/ha",2%
same,perennial control,[6]; at 14 DAT and at rates less than 2 kgs/ha applied 5 DAT,less than adequate
same,control of Obw in words,[7]; [8],controlled completely
same,% Weed Control (Obw),[7]; [9],96%
same,% Weed Control (Obw),[7]; [10],100%
same,% Weed Control (Obw),[7]; [11],100%
same,% Weed Control (Obw),[7]; [12],100%
same,% Weed Control (Obw),[7]; [13],83%
same,% Weed Control (Obw),[7]; [14],82%
